Series [1] addresses T1, HCV NS3/4A protease complex, BMS strain (UniProt P27958, species not given/STRAIN_BMS).
T1 construct: said of H77 and J4L6S; fused on or other part: A three-lysine solubilising tail at the C-terminus of NS4A and a His tag (pET21b, Ni-NTA purification)
Briefly: FRET peptide assay to monitor HCV NS3/4A proteolytic activity (BMS strain). The class given is biochemical, Hepatitis C virus (genotype 1a). The settings on record: NS3/4A BMS strain; read-out: IC50 Range. An excerpt: HCV NS3 protease complexes, derived from the BMS strain, H77 strain or J4L6S strain, were generated, as described below. These purified recombinant proteins were generated for use in a homogeneous assay (see below) to provide an indication of how effective compounds of the present disclosure would be in inhibiting HCV NS3 proteolytic activity.
Serum from an HCV-infected patient was obtained from Dr. T. Wright, San Francisco Hospital. An engineered full-length cDNA (compliment deoxyribonucleic acid) template of the HCV genome (BMS strain) was constructed from DNA fragments obtained by reverse transcription-PCR (RT-PCR) of serum RNA (ribonucleic acid) and using primers selected on the basis of homology between other genotype 1a strains. From the determination of the entire genome sequence, a genotype 1a was assigned to the HCV isolate according to the classification of Simmonds et al. (See P Simmonds, K A Rose, S Graham, S W Chan, F McOmish, B C Dow, E A Follett, P L Yap and H Marsden, J. Clin. Microbiol., 31(6), 1493-1503 (1993)). […] The infectious clones, H77 (1a genotype) and J4L6S (1b genotype) were obtained from R. Purcell (NIH) and the sequences are published in Genbank (AAB67036, see Yanagi, M., Purcell, R. H., Emerson, S. U. and Bukh, J. Proc. Natl. Acad. Sci. U.S.A. 94(16), 8738-8743 (1997); AF054247, see Yanagi, M., St Claire, M., Shapiro, M., Emerson, S. U., Purcell, R. H. and Bukh, J, Virology 244 (1), 161-172. (1998)).
The H77 and J4L6S strains were used for production of recombinant NS3/4A protease complexes. DNA encoding the recombinant HCV NS3/4A protease complex (amino acids 1027 to 1711) for these strains were manipulated as described by P. Gallinari et al. (see Gallinari P, Paolini C, Brennan D, Nardi C, Steinkuhler C, De Francesco R. Biochemistry. 38(17):5620-32, (1999)). Briefly, a three-lysine solubilizing tail was added at the 3′-end of the NS4A coding region. The cysteine in the P1 position of the NS4A-NS4B cleavage site (amino acid 1711) was changed to a glycine to avoid the proteolytic cleavage of the lysine tag. Furthermore, a cysteine to serine mutation was introduced by PCR at amino acid position 1454 to prevent the autolytic cleavage in the NS3 helicase domain. The variant DNA fragment was cloned in the pET21b bacterial expression vector (Novagen) and the NS3/4A complex was expressed in Escherichia coli strain BL21 (DE3) (Invitrogen) following the protocol described by P. Gallinari et al. (see Gallinari P, Brennan D, Nardi C, Brunetti M, Tomei L, Steinkuhler C, De Francesco R., J Virol. 72(8):6758-69 (1998)) with modifications. Briefly, the NS3/4A protease complex expression was induced with 0.5 mM Isopropyl β-D-1-thiogalactopyranoside (IPTG) for 22 hours (h) at 20° C. A typical fermentation (1 Liter (L)) yielded approximately 10 grams (g) of wet cell paste. The cells were resuspended in lysis buffer (10 mL/g) consisting of 25 mM N-(2-Hydroxyethyl)Piperazine-N′-(2-Ethane Sulfonic acid) (HEPES), pH 7.5, 20% glycerol, 500 mM Sodium Chloride (NaCl), 0.5% Triton X-100, 1 microgram/milliliter (“μg/mL”) lysozyme, 5 mM Magnesium Chloride (MgCl2), 1 μg/ml Dnasel, 5 mM β-Mercaptoethanol (βME), Protease inhibitor-Ethylenediamine Tetraacetic acid (EDTA) free (Roche), homogenized and incubated for 20 minutes (min) at 4° C. The homogenate was sonicated and clarified by ultra-centrifugation at 235000 g for 1 h at 4° C. Imidazole was added to the supernatant to a final concentration of 15 mM and the pH adjusted to 8.0. The crude protein extract was loaded on a Nickel-Nitrilotriacetic acid (Ni-NTA) column pre-equilibrated with buffer B (25 mM HEPES, pH 8.0, 20% glycerol, 500 mM NaCl, 0.5% Triton X-100, 15 mM imidazole, 5 mM βME). The sample was loaded at a flow rate of 1 mL/min. The column was washed with 15 column volumes of buffer C (same as buffer B except with 0.2% Triton X-100). The protein was eluted with 5 column volumes of buffer D (same as buffer C except with 200 mM Imidazole). […]

In series [2] the test system is HCV replicon in HUH-7 cells. As to the kind of experiment: HCV replicon FRET assay. The settings on record: Hepatitis C virus, Huh-7; HCV replicon, for compounds tested; read-out: EC50 Range. The class given is cell-based, Hepatitis C virus (strain 1b). From the text:
An HCV replicon whole cell system was established as described by Lohmann V, Komer F, Koch J, Herian U, Theilmann L, Bartenschlager R., Science 285(5424):110-3 (1999). This system enabled us to evaluate the effects of our HCV Protease compounds on HCV RNA replication. Briefly, using the HCV strain 1b sequence described in the Lohmann paper (Assession number: AJ238799), an HCV cDNA was synthesized by Operon Technologies, Inc. (Alameda, Calif.), and the full-length replicon was then assembled in plasmid pGem9zf(+) (Promega, Madison, Wis.) using standard molecular biology techniques. The replicon consists of (i) the HCV 5′ UTR fused to the first 12 amino acids of the capsid protein, (ii) the neomycin phosphotransferase gene (neo), (iii) the IRES from encephalomyocarditis virus (EMCV), and (iv) HCV NS3 to NS5B genes and the HCV 3′ UTR. Plasmid DNAs were linearized with Scal and RNA transcripts were synthesized in vitro using the T7 MegaScript transcription kit (Ambion, Austin, Tex.) according to manufacturer's directions. In vitro transcripts of the cDNA were transfected into the human hepatoma cell line, HUH-7. […] Resulting cell lines were characterized for positive and negative strand RNA production and protein production over time.
The HCV replicon FRET assay was developed to monitor the inhibitory effects of compounds described in the disclosure on HCV viral replication. HUH-7 cells, constitutively expressing the HCV replicon, were grown in Dulbecco's Modified Eagle Media (DMEM) (Gibco-BRL) containing 10% Fetal calf serum (FCS) (Sigma) and 1 mg/ml G418 (Gibco-BRL). Cells were seeded the night before (1.5×10^4 cells/well) in 96-well tissue-culture sterile plates. Compound and no compound controls were prepared in DMEM containing 4% FCS, 1:100 Penicillin/Streptomysin (Gibco-BRL), 1:100 L-glutamine and 5% DMSO in the dilution plate (0.5% DMSO final concentration in the assay). Compound/DMSO mixes were added to the cells and incubated for 4 days at 37° C. After 4 days, cells were first assessed for cytotoxicity using alamar Blue (Trek Diagnotstic Systems) for a CC50 reading. The toxicity of compound (CC50) was determined by adding 1/10th volume of alamar Blue to the media incubating the cells. After 4 hours, the fluorescence signal from each well was read, with an excitation wavelength at 530 nm and an emission wavelength of 580 nm, using the Cytofluor Series 4000 (Perspective Biosystems). Plates were then rinsed thoroughly with Phosphate-Buffered Saline (PBS) (3 times 150 μl). The cells were lysed with 25 μl of a lysis assay reagent containing an HCV protease substrate (5× cell Luciferase cell culture lysis reagent (Promega #E153A) diluted to 1× with distilled water, NaCl added to 150 mM final, the FRET peptide substrate (as described for the enzyme assay above) diluted to 10 μM final from a 2 mM stock in 100% DMSO. […]. The plate was then placed into the Cytofluor 4000 instrument which had been set to 340 nm excitation/490 nm emission, automatic mode for 21 cycles and the plate read in a kinetic mode. EC50 determinations were carried out as described for the IC50 determinations.
For orientation: Replicon systems follow genome replication, usually without infectious particles.

Molecules are shown by their SMILES.

T1 sequence (P27958 1027-1657, change not shown, one chain of several): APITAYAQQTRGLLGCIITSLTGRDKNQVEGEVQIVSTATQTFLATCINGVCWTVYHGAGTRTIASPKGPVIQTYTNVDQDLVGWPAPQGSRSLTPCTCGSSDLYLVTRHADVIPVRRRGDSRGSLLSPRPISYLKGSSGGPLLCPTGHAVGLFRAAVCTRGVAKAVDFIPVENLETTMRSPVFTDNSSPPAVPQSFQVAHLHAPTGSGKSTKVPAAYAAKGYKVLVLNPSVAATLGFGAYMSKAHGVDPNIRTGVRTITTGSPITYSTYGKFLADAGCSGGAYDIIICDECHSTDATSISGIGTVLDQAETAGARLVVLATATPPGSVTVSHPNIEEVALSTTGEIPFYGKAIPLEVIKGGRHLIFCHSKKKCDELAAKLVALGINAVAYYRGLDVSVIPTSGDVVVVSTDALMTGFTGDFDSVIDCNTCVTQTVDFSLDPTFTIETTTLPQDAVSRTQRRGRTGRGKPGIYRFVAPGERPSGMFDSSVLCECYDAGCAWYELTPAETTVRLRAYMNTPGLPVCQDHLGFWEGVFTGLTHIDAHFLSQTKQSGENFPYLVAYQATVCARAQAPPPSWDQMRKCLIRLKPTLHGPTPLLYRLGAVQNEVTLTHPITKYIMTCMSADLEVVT

In general, IC50 refers to the point on the concentration scale where inhibition reaches its midpoint. For orientation: EC50 means the midpoint of the concentration-response curve. A word on the melting point: it is the temperature, or range, at which the solid turns liquid. For `CC(C)(C)OC(=O)N[C@H]1CCCCC/C=C\[C@@H]2C[C@@]2(C(=O)NS(=O)(=O)C2CC2)NC(=O)[C@@H]2C[C@@H](OC(=O)c3ccc(F)cc3)CN2C1=O` [Compound 29, 18-(4-fluorobenzoyloxy)-14-tert-butoxycarbonylamino-4-cyclopropylsulfonylaminocarbonyl-2,15-dioxo-3,16-diazatricyclo-[14.3.0.0^4,6]-nonadec-7-ene], the melting point lay within 154 to 156 °C. Further, the IC50 in series [1] was below 100 nM. The EC50 in series [2] is below 100 nM.
Turning to `CC(C)(C)OC(=O)N[C@H]1CCCCC/C=C\[C@@H]2C[C@@]2(C(=O)NS(=O)(=O)C2CC2)NC(=O)[C@@H]2C[C@@H](OC(=O)c3cccnc3)CN2C1=O` [Compound 30, 18-(nicotinoyloxy)-14-tert-butoxycarbonylamino-4-cyclopropylsulfonylaminocarbonyl-2,15-dioxo-3,16-diazatricyclo-[14.3.0.0^4,6]-nonadec-7-ene], the melting point is 157 to 159 °C. Further, the IC50 in series [1] was below 100 nM. In series [2], the half-maximal effective concentration (EC50) is above 1000 nM.
With `CC(C)(C)OC(=O)N[C@H]1CCCCC/C=C\[C@@H]2C[C@@]2(C(=O)NS(=O)(=O)C2CC2)NC(=O)[C@@H]2C[C@@H](OC(=O)c3cccc(Cl)c3)CN2C1=O` [Compound 22, 18-(3-chorobenzoyloxy)-14-tert-butoxycarbonylamino-4-cyclopropylsulfonylaminocarbonyl-2,15-dioxo-3,16-diazatricyclo-[14.3.0.0^4,6]-nonadec-7-ene], the melting point fell in the range of 154 to 156 °C. The half-maximal inhibitory concentration (IC50) in series [1] is below 100 nM. For the same molecule, the EC50 in series [2] is below 100 nM.
With `CCCC(C)C(=O)O[C@@H]1C[C@H]2C(=O)N[C@]3(C(=O)NS(=O)(=O)C4CC4)C[C@H]3/C=C\COCCC[C@H](NC(=O)OC(C)(C)C)C(=O)N2C1` (stereo partly drawn) [Compound 2, 18-(2-methylvaleryloxy)-14-tert-butoxycarbonylamino-4-cyclopropylsulfonylaminocarbonyl-2,15-dioxo-3,16-diaza-10-oxatricyclo-[14.3.0.0^4,6]-nonadec-7-ene], the melting point is 121 to 123 °C. For the same molecule, the IC50 in series [1] is below 100 nM. Besides, the EC50 in series [2] was above 1000 nM.
For the molecule `CC(C)(C)OC(=O)N[C@H]1CCCCC/C=C\[C@@H]2C[C@@]2(C(=O)NS(=O)(=O)C2CC2)NC(=O)[C@@H]2C[C@@H](OC(=O)c3cccc(C#N)c3)CN2C1=O` [Compound 33, 18-(3-cyanobenzoyloxy)-14-tert-butoxycarbonylamino-4-cyclopropylsulfonylaminocarbonyl-2,15-dioxo-3,16-diazatricyclo-[14.3.0.0^4,6]-nonadec-7-ene], the melting point fell in the range of 151 to 153 °C. Further, in series [1], the concentration for half-maximal inhibition (IC50) is below 100 nM. Further, in series [2], the concentration giving a half-maximal response (EC50) was 100 to 1000 nM.
For `CC(C)(C)OC(=O)N[C@H]1CCCOC/C=C\[C@@H]2C[C@@]2(C(=O)NS(=O)(=O)C2CC2)NC(=O)[C@@H]2C[C@@H](OC(=O)c3ccc(-c4ccccc4)cc3)CN2C1=O` [Compound 11, 18-(4-biphenylcarbonyloxy)-14-tert-butoxycarbonylamino-4-cyclopropylsulfonylaminocarbonyl-2,15-dioxo-3,16-diaza-10-oxatricyclo-[14.3.0.0^4,6]-nonadec-7-ene] the same measures were 160 to 162 °C, below 100 nM and below 100 nM.
`CC(C)(C)OC(=O)N[C@H]1COCCC/C=C\[C@@H]2C[C@@]2(C(=O)NS(=O)(=O)C2CC2)NC(=O)[C@@H]2C[C@@H](OC(=O)c3cccc(Oc4ccccc4)c3)CN2C1=O` [Compound 13, 18-(3-phenoxybenzoyloxy)-14-tert-butoxycarbonylamino-4-cyclopropylsulfonylaminocarbonyl-2,15-dioxo-3,16-diaza-12-oxatricyclo-[14.3.0.0^4,6]-nonadec-7-ene] yielded a melting point of 123 to 125 °C. In addition, the 50% inhibitory concentration (IC50) in series [1] is below 100 nM. Besides, the EC50 in series [2] is 100 to 1000 nM.
For the molecule `CCOC(=O)c1ccccc1NC(=O)N[C@H]1CCCCC/C=C\[C@@H]2C[C@@]2(C(=O)NS(=O)(=O)C2CC2)NC(=O)[C@@H]2C[C@@H](OC(=O)Nc3ccccc3C(=O)OCC)CN2C1=O` [Compound 44], the melting point was 142 to 144 °C. The IC50 in series [1] was below 100 nM. In series [2], the EC50 was in the range of 100 to 1000 nM.
Take `CC(C)(C)OC(=O)N[C@H]1CCCOC/C=C\[C@@H]2C[C@@]2(C(=O)NS(=O)(=O)C2CC2)NC(=O)[C@@H]2C[C@@H](OC(=O)C3CCCCC3)CN2C1=O` [Compound 3, 18-cyclohexanecarbonyloxy-14-tert-butoxycarbonylamino-4-cyclopropylsulfonylaminocarbonyl-2,15-dioxo-3,16-diaza-10-oxatricyclo-[14.3.0.0^4,6]-nonadec-7-ene]: the melting point lay in the range of 128 to 130 °C. Moreover, the IC50 in series [1] was below 100 nM. Further, the concentration for a half-maximal effect (EC50) in series [2] was above 1000 nM.

Source of the values: patent publication US7772183B2 (Bristol-Myers Squibb Company, priority 2005, dated 2010).
